Data published in patent US11248019B2, “Trityl-mono-GalNAc compounds and their use” (Hoffmann-La Roche Inc., priority 2016, dated 2022).

Experiments:
[1] = system: total cholesterol in serum; assay: Total cholesterol in serum (Example 6); format: in vivo, C57BL6/J mice; settings: day 3
Procedure: (§1) Female C57BL6/J mice (5/group appr. 20 g at arrival) were injected intravenous (iv) with a single dose saline, 0.22 mg/kg, 0.45 mg/kg or 0.89 mg/kg, of GalNAc conjugated LNA antisense oligonucleotide (Compound H, I or J of the invention) or the naked reference compound F. Blood samples of 50 μl were collected pre-dosing at day minus 6. The animals were sacrificed at day 3. Total serum was collected as well as liver and kidney.
Total cholesterol in serum was measured using ABX Pentra Cholesterol CP (Triolab, Brondby, Denmark) according to the manufacturer's instructions.

[2] = Oligonucleotide content in liver and kidney by ELISA (Example 4); format: in vivo, C57BL6/J mice; settings: 0.25 mg/kg single sc dose, day 10
Procedure: (§2) Female C57BL6/J mice (5/group appr. 20 g at arrival) were injected subcutaneous (sc) with a single dose saline or 0.25 mg/kg unconjugated LNA-antisense oligonucleotide (compound F) or with 0.25 mg/kg or 0.1 mg/kg of GalNAc conjugated LNA antisense oligonucleotide (Compound C or E of the invention or reference compound G). Blood samples of 50 μl were collected pre-dosing at day minus 6, and post dosing at day 3 and 7. The animals were sacrificed at day 10 and total serum was collected as well as liver and kidney.
The oligonucleotide content in the liver and kidney was measured using ELISA (see for example Straarup et al 2010 Nucleic Acid Res Vol 38 pp 7100-7111), results are shown in Table 6.

[3] = system: primary mouse hepatocytes; assay: Oligonucleotide content in primary mouse hepatocyte culture by ELISA (Example 9); format: in vitro ADME, C57BL/6J female mice
Procedure: Primary mouse hepatocytes were isolated from C57BL/6J female mice. The mice were anesthesized and the liver was perfused at a flow rate of 7 ml per min through the vena cava using Hank's balanced salt solution containing 15 mM Hepes and 0.38 mM EGTA for 5 min followed by collagenase solution (Hank's balanced salt solution containing 0.17 mg/ml Collagenase type 2 (Worthington 4176), 0.03% BSA, 3.2 mM CaCl2 and 1.6 g/I NaHCO3) for 12 min. Following perfusion, the liver was removed and the liver capsule was opened, the liver suspension was filtered through 70 μm cell strainer using William E medium. The cell suspension was centrifuged for 3 min at 50×g. Viable hepatocytes were further enriched by gradient centrifugation with 45% Percoll (Sigma cat. No. P4937) for 10 min at 50×g. The pellet was washed and resuspended in 25 ml William E medium (Sigma cat. no. W1878 complemented with 1×Pen/Strep, 2 mM L-glutamine and 10% FBS (ATCC #30-2030)), and seeded at 25.000 cells per well in collagen coated 96 well plates. […] Two different incubation regimens were used, one where the cells were incubated 4 hours with oligonucleotide following a medium exchange and continued incubation to a total of 72 hours. In the second regimen the cells were incubated for 72 hours with the oligonucleotides.
Oligonucleotide content analysis was performed using ELISA (see for example Straarup et al 2010 Nucleic Acid Res Vol 38 pp 7100-7111), results are shown in table 20 and 21 below.

[4] = system: ApoB mRNA; assay: ApoB mRNA knock down in primary mouse hepatocytes, qPCR (Example 9); format: cell-based, C57BL/6J female mice; settings: n = 2
Procedure: Primary mouse hepatocytes were isolated from C57BL/6J female mice. The mice were anesthesized and the liver was perfused at a flow rate of 7 ml per min through the vena cava using Hank's balanced salt solution containing 15 mM Hepes and 0.38 mM EGTA for 5 min followed by collagenase solution (Hank's balanced salt solution containing 0.17 mg/ml Collagenase type 2 (Worthington 4176), 0.03% BSA, 3.2 mM CaCl2 and 1.6 g/I NaHCO3) for 12 min. Following perfusion, the liver was removed and the liver capsule was opened, the liver suspension was filtered through 70 μm cell strainer using William E medium. The cell suspension was centrifuged for 3 min at 50×g. Viable hepatocytes were further enriched by gradient centrifugation with 45% Percoll (Sigma cat. No. P4937) for 10 min at 50×g. The pellet was washed and resuspended in 25 ml William E medium (Sigma cat. no. W1878 complemented with 1×Pen/Strep, 2 mM L-glutamine and 10% FBS (ATCC #30-2030)), and seeded at 25.000 cells per well in collagen coated 96 well plates. After 3 hours the medium was exchanged and the oligonucleotides were added using 3 fold dilutions from […]. Two different incubation regimens were used, one where the cells were incubated 4 hours with oligonucleotide following a medium exchange and continued incubation to a total of 72 hours. […]

[5] = system: ApoB mRNA; assay: ApoB mRNA knockdown in liver and kidney by qPCR, single iv dose, sacrifice day 3 (Example 6); format: in vivo, C57BL6/J mice
Procedure: (§3) ApoB mRNA knockdown was analyzed by qPCR. In brief, RNA was isolated from homogenized liver and kidney using MagnaPure RNA Isolation and purification system (catalog #03604721001 and #05467535001; Roche) according to the manufacturer's instructions. RT-QPCR was done using Taqman Fast Universal PCR Master Mix 2×(Applied Biosystems Cat #4364103) and Taqman gene expression assay (mApoB, Mn01545150_m1 and mGAPDH #4352339E) following the manufacturers protocol.
as §1

[6] = system: ApoB mRNA; assay: ApoB mRNA knockdown in liver and kidney by qPCR, single sc dose, sacrifice day 10 (Example 4); format: in vivo, C57BL6/J mice; settings: 0.25 mg/kg single sc dose
Procedure: as §2, §3

[7] = ALT in serum (Example 6); format: in vivo, C57BL6/J mice; settings: day 3
Procedure: as §1
ALT (Alanine aminotransferase) was measured using ABX Pentra ALT CP reagent (A11A01627 Triolab, Brondby, Denmark. The results are shown in Table 13.

[8] = Oligonucleotide content in liver and kidney by ELISA (Example 6); format: in vivo, C57BL6/J mice; settings: day 3
Procedure: as §1
The oligonucleotide content in the liver and kidney was measured using ELISA (see for example Straarup et al 2010 Nucleic Acid Res Vol 38 pp 7100-7111), results are shown in Table 11A and 11B.

Oligonucleotide content, Kidney [2]: 1.370 μg/g tissue | Oligonucleotide content, Liver [2]: 0.028 μg/g tissue | oligonucleotide content in the cell culture ([3]; 4 h pulse, 72 hours total incubation, 1 μM): 0.1 pmol/μg protein | oligonucleotide content in the cell culture ([3]; 4 h pulse, 72 hours total incubation, 3 μM): 0.4 pmol/μg protein | oligonucleotide content in the cell culture ([3]; 4 h pulse, 72 hours total incubation, 9 μM): 1.0 pmol/μg protein | oligonucleotide content in the cell culture ([3]; 4 h pulse, 72 hours total incubation, 27 μM): 1.4+/−0.2 pmol/μg protein | oligonucleotide content in the cell culture ([3]; 72 h oligonucleotide treatment, 0.11 μM): 0.5 pmol/μg protein | oligonucleotide content in the cell culture ([3]; 72 h oligonucleotide treatment, 0.33 μM): 1.5 pmol/μg protein | oligonucleotide content in the cell culture ([3]; 72 h oligonucleotide treatment, 1 μM): 7.9 pmol/μg protein | oligonucleotide content in the cell culture ([3]; 72 h oligonucleotide treatment, 3 μM): 14.5 pmol/μg protein | oligonucleotide content in the cell culture ([3]; 72 h oligonucleotide treatment, 9 μM): 34.1 pmol/μg protein | oligonucleotide content in the cell culture ([3]; 72 h oligonucleotide treatment, 27 μM): 34.2+/−0.7 pmol/μg protein | Oligonucleotide content in kidney tissue ([8]; 0.22 mg/kg single iv dose): 0.337 µg/g | Oligonucleotide content in liver tissue ([8]; 0.22 mg/kg single iv dose): 0.059 µg/g | Oligonucleotide content in kidney tissue ([8]; 0.45 mg/kg single iv dose): 0.506 µg/g | Oligonucleotide content in liver tissue ([8]; 0.45 mg/kg single iv dose): 0.173 µg/g | Oligonucleotide content in kidney tissue ([8]; 0.89 mg/kg single iv dose): 1.050 µg/g | Oligonucleotide content in liver tissue ([8]; 0.89 mg/kg single iv dose): 0.470 µg/g
Substance: 5′-GS^mCSaStStSgSgStSaStSTS^mCSA-3′ [Compound F, reference compound]
serum cholesterol percent of saline ([1]; 0.22 mg/kg single iv dose): 104.3% of saline | serum cholesterol percent of saline ([1]; 0.45 mg/kg single iv dose): 86.8% of saline | serum cholesterol percent of saline ([1]; 0.89 mg/kg single iv dose): 66.9% of saline | IC50 ([4]; 4 h pulse/72 h total incubation): 2620 nM | IC50 ([4]; 72 h oligonucleotide treatment): 331 nM | ApoB mRNA expression as % of saline in kidney ([5]; 0.22 mg/kg single iv dose): 68.0 % of saline | ApoB mRNA/mGAPDH expression as % of saline in liver ([5]; 0.22 mg/kg single iv dose): 87.5 % of saline | ApoB mRNA expression as % of saline in kidney ([5]; 0.45 mg/kg single iv dose): 51.1 % of saline | ApoB mRNA/mGAPDH expression as % of saline in liver ([5]; 0.45 mg/kg single iv dose): 90.2 % of saline | ApoB mRNA expression as % of saline in kidney ([5]; 0.89 mg/kg single iv dose): 29.0 % of saline | ApoB mRNA/mGAPDH expression as % of saline in liver ([5]; 0.89 mg/kg single iv dose): 53.8 % of saline | ApoB mRNA expression as % of saline, mRNA kidney ([6]; day 10, kidney): 24.7 % of saline | ApoB mRNA expression as % of saline, mRNA liver ([6]; day 10, liver): 74.5 % of saline | ALT levels (U/L) in serum at day 3 as % of saline ([7]; 0.22 mg/kg single iv dose): 91 % of saline | ALT levels (U/L) in serum at day 3 as % of saline ([7]; 0.45 mg/kg single iv dose): 151 % of saline | ALT levels (U/L) in serum at day 3 as % of saline ([7]; 0.89 mg/kg single iv dose): 217 % of saline
